Reference: ChEMBL document CHEMBL5360537, “From lead to clinic: A review of the structural design of P2X7R antagonists” (Eur J Med Chem, 2023)

Tests used:
[1] = target: T1, P2X purinoceptor 7 (Homo sapiens, UniProt Q99572); assay: Antagonist activity at human P2X7 receptor expressed in 1321N1 cells by FLIPR assay; assay type: cell-based
T1 sequence (Q99572 whole entry): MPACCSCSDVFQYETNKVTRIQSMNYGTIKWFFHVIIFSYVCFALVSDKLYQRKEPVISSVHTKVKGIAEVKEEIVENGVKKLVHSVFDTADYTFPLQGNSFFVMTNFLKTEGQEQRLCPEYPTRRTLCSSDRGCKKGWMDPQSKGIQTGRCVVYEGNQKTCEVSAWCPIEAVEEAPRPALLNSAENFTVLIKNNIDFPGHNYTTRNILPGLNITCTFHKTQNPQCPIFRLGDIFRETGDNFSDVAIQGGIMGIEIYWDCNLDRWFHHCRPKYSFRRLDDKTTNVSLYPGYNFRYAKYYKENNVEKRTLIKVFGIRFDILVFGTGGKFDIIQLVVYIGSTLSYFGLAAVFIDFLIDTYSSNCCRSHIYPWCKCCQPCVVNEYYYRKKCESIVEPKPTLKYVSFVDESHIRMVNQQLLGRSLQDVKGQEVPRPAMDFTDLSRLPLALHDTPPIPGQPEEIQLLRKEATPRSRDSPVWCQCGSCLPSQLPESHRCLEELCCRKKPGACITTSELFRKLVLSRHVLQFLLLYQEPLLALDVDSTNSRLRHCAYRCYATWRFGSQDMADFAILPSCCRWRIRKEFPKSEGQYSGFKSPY

[2] = target: T1, P2X purinoceptor 7; assay: Inhibition of human P2X7 receptor transfected in HEK293 cells by calcium influx assay; assay type: cell-based
[3] = target: T1, P2X purinoceptor 7; assay: Antagonist activity at human P2X7 receptor expressed in HEK293 by fluorescence plate reader analysis; assay type: cell-based
[4] = target: T1, P2X purinoceptor 7; assay: Antagonist activity at human P2X7 receptor by calcium flux assay
[5] = target: T2, P2X purinoceptor 7 (Mus musculus, UniProt Q9Z1M0); assay: Antagonist activity at mouse P2X7 receptor by calcium flux assay
T2 sequence (Q9Z1M0 whole entry): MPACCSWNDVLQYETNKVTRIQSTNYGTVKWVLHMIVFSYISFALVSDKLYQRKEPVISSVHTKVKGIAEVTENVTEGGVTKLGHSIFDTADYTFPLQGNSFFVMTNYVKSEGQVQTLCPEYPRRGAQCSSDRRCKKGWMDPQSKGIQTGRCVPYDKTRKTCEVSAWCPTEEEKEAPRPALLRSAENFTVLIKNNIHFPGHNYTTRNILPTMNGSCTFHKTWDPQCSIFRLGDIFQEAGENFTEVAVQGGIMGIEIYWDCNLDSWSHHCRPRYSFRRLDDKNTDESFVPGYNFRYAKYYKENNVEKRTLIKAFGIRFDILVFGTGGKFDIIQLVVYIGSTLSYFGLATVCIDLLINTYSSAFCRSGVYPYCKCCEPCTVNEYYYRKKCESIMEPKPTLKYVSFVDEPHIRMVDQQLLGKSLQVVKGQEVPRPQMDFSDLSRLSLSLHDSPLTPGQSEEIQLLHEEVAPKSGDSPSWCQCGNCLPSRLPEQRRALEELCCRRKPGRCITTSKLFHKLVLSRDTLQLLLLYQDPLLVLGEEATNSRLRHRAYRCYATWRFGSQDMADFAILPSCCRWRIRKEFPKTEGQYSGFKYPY

[6] = target: T3, P2X purinoceptor 7 (Rattus norvegicus, UniProt Q64663); assay: Antagonist activity at rat P2X7 receptor by calcium flux assay
T3 sequence (Q64663 whole entry): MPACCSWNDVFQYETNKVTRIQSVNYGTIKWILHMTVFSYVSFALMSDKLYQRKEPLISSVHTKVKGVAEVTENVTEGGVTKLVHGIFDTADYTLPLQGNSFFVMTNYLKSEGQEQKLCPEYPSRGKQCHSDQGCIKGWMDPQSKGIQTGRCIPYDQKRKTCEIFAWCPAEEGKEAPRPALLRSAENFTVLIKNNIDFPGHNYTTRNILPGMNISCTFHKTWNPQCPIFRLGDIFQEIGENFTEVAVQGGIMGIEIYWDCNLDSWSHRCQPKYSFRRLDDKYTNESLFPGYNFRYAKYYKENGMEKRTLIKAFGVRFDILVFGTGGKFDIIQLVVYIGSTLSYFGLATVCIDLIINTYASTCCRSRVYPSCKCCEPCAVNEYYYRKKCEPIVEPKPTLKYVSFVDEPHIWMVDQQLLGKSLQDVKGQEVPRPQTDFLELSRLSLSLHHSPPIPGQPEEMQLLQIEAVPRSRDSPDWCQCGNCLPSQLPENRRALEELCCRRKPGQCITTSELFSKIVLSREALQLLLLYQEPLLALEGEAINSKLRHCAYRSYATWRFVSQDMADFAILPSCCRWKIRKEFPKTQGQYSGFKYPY

[7] = target: T4, P2X purinoceptor 7 (Mus musculus) (UniProt Q9Z1M0); assay: Antagonist activity at P2X7 receptor in mouse Peritoneal macrophage cells assessed as ATP induced dye uptake at 10 uM relative to control; assay type: cell-based
T4 sequence (whole entry): T2 sequence (Q9Z1M0 whole entry)

[8] = target: T1, P2X purinoceptor 7; assay: Antagonist activity at human P2X7 receptor

Cc1c(F)cc(CO)cc1Nc1nc(=O)cnn1Cc1cc(F)c(F)c(F)c1
IC50 [1]: 3 nM

CS(=O)(=O)C1CC[C@@](F)(C(=O)NCc2ccc(Cl)cc2Cl)c2cccnc21 (some centres not stated)
IC50 [2]: < 50 nM

O=C1CCC(C(=O)NCc2cccc(C(F)(F)F)c2Cl)c2cccnc21 (configuration not stated)
IC50 [2]: < 50 nM

COCCn1cc(C(=O)NCc2ccc3c(c2)OCO3)c2c(Cl)cccc21
IC50 [3]: > 1000 nM

COc1ccc(Cc2noc(=O)n2CC2CCC(F)(F)CC2)cc1
IC50 [4]: 1000 nM | IC50 [5]: 1000 nM | IC50 [6]: 1000 nM

CC1=C(C(c2ccc(Br)cc2)n2cc(COCc3ccco3)nn2)C(=O)c2ccccc2C1=O (configuration not stated)
inhibition [7]: < 60%

COc1cc(Nc2nc(=O)c(F)cn2Cc2cc(F)c(F)c(F)c2)c(C)c(F)c1OC
IC50 [1]: < 10 nM

Cc1c(Cl)cccc1Nc1nc(=O)cc2n1C(c1ccccc1)COC2 (configuration not stated)
IC50 [8]: 1.8 nM

O=C1CO[C@]2(CC[C@@](F)(C(=O)NCc3ccc(Cl)cc3Cl)c3cccnc32)CN1
IC50 [2]: < 50 nM

CC1=C(C(C)n2cc(COCc3ccco3)nn2)C(=O)c2ccccc2C1=O (configuration not stated)
inhibition [7]: < 60%

COCCn1cc(C(=O)NCc2ccc(C(F)(F)F)cc2)c2c(Cl)cccc21
IC50 [3]: > 1000 nM

Cc1ccc(-c2ncco2)cc1Nc1nc(=O)cnn1Cc1cc(F)c(F)c(F)c1
IC50 [1]: 2.4 nM

Cc1ccc(OCCO)cc1Nc1nc(=O)cnn1Cc1cc(F)c(F)c(F)c1
IC50 [1]: 9.7 nM

CCc1cccc(Nc2nc(=O)c3[nH]cnc3n2Cc2ccc(F)cc2)c1CC
IC50 [8]: < 10 nM

Cc1cc(Nc2nc(=O)c3[nH]cnc3n2Cc2ccccc2)c(C)cc1Cl
IC50 [8]: < 10 nM

C[C@H]1CCC[C@@](O)(CNC(=O)c2cn(CCC(F)F)c3cccc(Cl)c23)C1
IC50 [3]: < 10 nM

Cc1nc2cc(C)c(Nc3nc(=O)c4[nH]cnc4n3Cc3ccc(F)cc3)cc2s1
IC50 [8]: 11 nM

COc1ccc(Nc2nc(=O)c3nn(C)cc3n2Cc2cc(F)c(F)c(F)c2)c(C)c1
IC50 [8]: < 10 nM

Cc1noc(C)c1Cc1noc(=O)n1CC1CCC(F)(F)CC1
IC50 [4]: < 200 nM | IC50 [5]: 1000 nM | IC50 [6]: 200 nM

O=c1onc(Cc2c(F)cccc2Cl)n1CC1CCC(F)(F)CC1
IC50 [4]: < 200 nM | IC50 [5]: < 200 nM | IC50 [6]: < 200 nM

CC1CCCC(O)(CNC(=O)c2cn(C3COC3)c3cccc(Cl)c23)C1 (configuration not stated)
IC50 [3]: < 10 nM

CC1CC(F)(F)CCN1Cn1c(Cc2c(F)cccc2Cl)noc1=O (configuration not stated)
IC50 [4]: < 200 nM | IC50 [5]: < 200 nM | IC50 [6]: < 200 nM

Cn1nccc1Nc1nc(=O)c(F)cn1Cc1cc(F)c(F)c(F)c1
IC50 [1]: > 100 nM

COc1ccc(Nc2nc(=O)cc3n2C(c2ccccc2)CN3C)c(C)c1 (configuration not stated)
IC50 [8]: < 10 nM

O=c1onc(Cc2ccccc2Cl)n1CC1CCC(F)(F)CC1
IC50 [4]: < 200 nM | IC50 [5]: 200 nM | IC50 [6]: < 200 nM

COc1cnc(C)c(Nc2nc(=O)c3c(n2Cc2cc(F)c(F)c(F)c2)CCC3)c1
IC50 [8]: 100 nM

O=c1onc(Cc2c(F)cccc2Cl)n1CC1CCC(C(F)(F)F)CC1 (configuration not stated)
IC50 [4]: < 200 nM | IC50 [5]: < 200 nM | IC50 [6]: < 200 nM

COCCn1cc(C(=O)NC[C@@]2(O)CCCC(F)(F)C2)c2c(Cl)cccc21
IC50 [3]: < 10 nM

O=C(NCc1ccc(F)cc1Cl)[C@]1(F)CC[C@H](OCCO)c2ncccc21
IC50 [2]: < 50 nM

O=C(NCc1cccc(C(F)(F)F)c1Cl)C1(F)CCC(O)c2ncccc21 (configuration not stated)
IC50 [2]: < 50 nM

COc1ccc(Nc2nc(=O)c3[nH]cnc3n2Cc2ccc(F)c(F)c2)c(C)c1
IC50 [8]: < 10 nM

O=c1snc(Cc2c(F)cccc2Cl)n1CC1CCC(F)(F)CC1
IC50 [4]: < 200 nM | IC50 [5]: < 200 nM | IC50 [6]: < 200 nM

Cc1nc2cc(C)c(Nc3nc(=O)cc4n3C(c3ccc(F)cc3)CC4)cc2s1 (configuration not stated)
IC50 [8]: < 10 nM

O=C(NCc1ccc(Cl)cc1Cl)[C@@]1(F)CC[C@](O)(CN2CC(O)C2)c2ncccc21
IC50 [2]: < 50 nM

COc1ccc(C)c(Nc2nc(=O)cnn2Cc2cncc(F)c2)c1
IC50 [1]: 100 nM

Cc1ncccc1Cc1noc(=O)n1CC1CCC(F)(F)CC1
IC50 [4]: 200 nM | IC50 [5]: 1000 nM | IC50 [6]: 1000 nM

Cc1c(Cl)cccc1Nc1nc(=O)cc2n1C(c1ccccc1)CC2 (configuration not stated)
IC50 [8]: < 10 nM

C[C@@H]1CCC[C@](O)(CNC(=O)c2cn(CC3CCCO3)c3cccc(Cl)c23)C1 (some centres not stated)
IC50 [3]: 10 nM

O=c1onc(CN2CCC(F)(F)CC2)n1CC1CCC(F)(F)CC1
IC50 [4]: > 10000 nM | IC50 [5]: > 10000 nM | IC50 [6]: > 10000 nM

O=c1onc(CN2CCOc3ccccc32)n1CC1CCC(F)(F)CC1
IC50 [4]: < 200 nM | IC50 [5]: < 200 nM | IC50 [6]: < 200 nM

Cc1c(Cl)cccc1Nc1nc(=O)cc2n1C(c1ccccc1)CO2 (configuration not stated)
IC50 [8]: < 10 nM

Cc1ccc(Cn2c(Nc3cc4sc(C)nc4cc3C)nc(=O)c3[nH]cnc32)cc1
IC50 [8]: 500 nM

Cc1ccc(CO)cc1Nc1nc(=O)ccn1Cc1cc(F)c(F)c(F)c1
IC50 [1]: 4 nM

COc1ccc(Nc2nc(=O)c3onc(C)c3n2Cc2ccc(F)c(F)c2)c(C)c1
IC50 [8]: < 10 nM

O=c1onc(Cc2ccc(Cl)cc2Cl)n1CC1CCC(F)(F)CC1
IC50 [4]: < 200 nM | IC50 [5]: 200 nM | IC50 [6]: < 200 nM

COCCn1cc(C(=O)NCc2nc3ccccc3s2)c2c(Cl)cccc21
IC50 [3]: > 1000 nM

CCOC(C)CNC(=O)c1cn(C2COC2)c2cccc(Cl)c12 (configuration not stated)
IC50 [3]: > 1000 nM

COc1nc(C)c(Nc2nc(=O)c3[nH]cnc3n2Cc2ccc(F)c(F)c2)cc1C
IC50 [8]: < 10 nM

O=c1onc(Cc2c(F)cccc2Cl)n1CC1CCCCCC1
IC50 [4]: < 200 nM | IC50 [5]: 200 nM | IC50 [6]: < 200 nM

CN1C(=O)N=C(NCc2ccccc2)N2C1=NCC2c1cc(F)c(F)c(F)c1 (configuration not stated)
IC50 [8]: < 10 nM

O=c1onc(Cc2c(F)cccc2Cl)n1CC1CC2CCC1C2 (configuration not stated)
IC50 [4]: < 200 nM | IC50 [5]: 200 nM | IC50 [6]: < 200 nM

CC1=C(C(c2ccc(C)cc2)n2cc(COCc3ccco3)nn2)C(=O)c2ccccc2C1=O (configuration not stated)
inhibition [7]: < 60%

CCN1C(=O)N=C(Nc2cc(C)c(C)cc2C)N2C1=NCC2c1ccccc1 (configuration not stated)
IC50 [8]: < 10 nM

COCCn1cc(C(=O)NCc2ccco2)c2c(Cl)cccc21
IC50 [3]: > 1000 nM

CC1=C(C(c2ccc(F)cc2)n2cc(COCc3ccco3)nn2)C(=O)c2ccccc2C1=O (configuration not stated)
inhibition [7]: < 60%

CS(=O)(=O)C[C@]1(O)CC[C@@](F)(C(=O)NCc2ccc(Cl)cc2Cl)c2cccnc21
IC50 [2]: < 50 nM
